Laboratory results as given in patent US9040528B2, “Chemical compounds 542” (AstraZeneca AB, priority 2008, dated 2015).

molecular target: Escherichia coli DNA gyrase A/B tetramer (Escherichia coli (strain K12), UniProt P0AES4+P0AES6); test: DNA gyrase supercoiling activity fluorescence polarisation assay; format: biochemical; conditions: not given
Procedure, shortened: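 Supercoiling reactions quenched with 40 nM 5′-BODIPY-FL triplex-forming oligonucleotide probe in pH 3.5 NaCl/sodium acetate buffer; after 60 min, fluorescence anisotropy read (ex 485/em 535 nm). IC50 by nonlinear regression, normalised to 0.8% DMSO (100% activity) and 5 μM ciprofloxacin (0% activity).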

Row | SMILES | IC50
1 | C[C@@H]1CN2c3c(cc4c(OC(=O)OC(C)(C)C)noc4c3F)CC3(C(=O)NC(=O)NC3=O)[C@H]2[C@H](C)O1 (relative stereo) [Example 102, tert-butyl(2R,4S,4aS)-rel-11-fluoro-2,4-dimethyl-2′,4′,6′-trioxo-1,1′,2,3′,4,4′,4a,6′-octahydro-2′H,6H-spiro[isoxazolo[4,5-g][1,4]oxazino[4,3-a]quinoline-5,5′-pyrimidin]-8-yl carbonate] | 2700 nM
2 | CC(C)NC(=O)c1noc2c(Cl)c3c(nc12)CC1(C(=O)NC(=O)NC1=O)[C@H]1[C@H](C)O[C@H](C)CN31 (relative stereo) [Example 127, (2R,4S,4aS)-rel-Chloro-N-isopropyl-2,4-dimethyl-2′,4′,6′-trioxo-2,2′,3′,4,4a,4′,6,6′-octahydro-1H,1′H-spiro[isoxazolo[4,5-g][1,4]oxazino[4,3-a][1,5]naphthyridine-5,5′-pyrimidine]-8-carboxamide] | 19000 nM
3 | C[C@@H]1CN2c3c(cc4c(C(=O)N5CC(C#N)C5)noc4c3F)CC3(C(=O)NC(=O)NC3=O)[C@H]2[C@H](C)O1 (relative stereo) [Example 164, 1-((2R,4 S,4 aS)-rel-11-fluoro-2,4-dimethyl-2′,4′,6′-trioxo-2,2′,3′,4,4a,4′,6,6′-octahydro-1H,1′H-spiro[isoxazolo[4,5-g][1,4]oxazino[4,3-a]quinoline-5,5′-pyrimidine]-8-ylcarbonyl)azetidine-3-carbonitrile] | 1200 nM

same assay, conditions: 5 nM enzyme, relaxed plasmid, 0.3 mM ATP, ambient temperature; read-out: E. coli DNA gyrase supercoiling IC50

Row | SMILES | IC50
4 | C[C@@H]1CN2c3c(cc4c(-c5ncccn5)noc4c3F)CC3(C(=O)NC(=O)NC3=O)[C@H]2[C@H](C)O1 (relative stereo) [Example 148, (2R,4S,4aS)-rel-11-fluoro-2,4-dimethyl-8-(pyrimidin-2-yl)-1,2,4,4a-tetrahydro-2′H,6H-spiro[1,4-oxazino[4,3-a][1,2]oxazolo[4,5-g]quinoline-5,5′-pyrimidine]-2′,4′,6′(1′H,3′H)-trione] | 900 nM
5 | C[C@@H]1CN2c3c(cc4c(C(F)F)noc4c3F)CC3(C(=O)NC(=O)NC3=O)[C@H]2[C@H](C)O1 (racemic) [Example 93, (2R,4S,4 aS)-rel-8-(difluoromethyl)-11-fluoro-2,4-dimethyl-2,4,4a,6-tetrahydro-1H,1′H-spiro[isoxazolo[4,5-g][1,4]oxazino[4,3-a]quinoline-5,5′-pyrimidine]-2′,4′,6′(3′H)-trione] | 700 nM
6 | CC(C)NC(=O)c1noc2c(F)c3c(cc12)CC1(C(=O)NC(=O)NC1=O)[C@H]1[C@H](C)O[C@H](C)CN31 (relative stereo) [Example 147, (2R,4S,4aS)-rel-11-fluoro-N-isopropyl-2,4-dimethyl-2′,4′,6′-trioxo-2,2′,3′,4,4a,4′,6,6′-octahydro-1H,1′H-spiro[isoxazolo[4,5-g][1,4]oxazino[4,3-a]quinoline-5,5′-pyrimidine]-8-carboxamide] | 3900 nM
7 | COCC(COC)(COC)NC(=O)c1noc2c(F)c3c(cc12)CC1(C(=O)NC(=O)NC1=O)[C@H]1[C@H](C)O[C@H](C)CN31 (relative stereo) [Example 163, (2R,4S,4aS)-rel-N-(1,3-dimethoxy-2-(methoxymethyl)propan-2-yl)-11-fluoro-2,4-dimethyl-2′,4′,6′-trioxo-2,2′,3′,4,4a,4′,6,6′-octahydro-1H,1′H-spiro[isoxazolo[4,5-g][1,4]oxazino[4,3-a]quinoline-5,5′-pyrimidine]-8-carboxamide] | 17000 nM
8 | CC(=O)Nc1noc2c(F)c3c(cc12)CC1(C(=O)NC(=O)NC1=O)[C@H]1[C@H](C)O[C@H](C)CN31 (relative stereo) [Example 6, N-[(2R,4S,4aS)-rel-11-fluoro-2,4-dimethyl-2′,4′,6′-trioxo-1,1′,2,3′,4,4′,4a,6′-octahydro-2′H,6H-spiro[isoxazolo[4,5-g][1,4]oxazino[4,3-a]quinoline-5,5′-pyrimidin]-8-yl]acetamide] | 800 nM
9 | C[C@@H]1CN2c3c(cc4c(OCc5ccccc5)noc4c3F)CC3(C(=O)NC(=O)NC3=O)[C@H]2[C@H](C)O1 (relative stereo) [Example 52, (2R,4S,4aS)-rel-8-(benzyloxy)-11-fluoro-2,4-dimethyl-1,2,4,4a-tetrahydro-2′H,6H-spiro[1,4-oxazino[4,3-a][1,2]oxazolo[4,5-g]quinoline-5,5′-pyrimidine]-2′,4′,6′(1′H,3′H)-trione] | 2400 nM
10 | CCNC(=O)c1noc2c(Cl)c3c(nc12)CC1(C(=O)NC(=O)NC1=O)[C@H]1[C@H](C)O[C@H](C)CN31 (relative stereo) [Example 126, (2R,4S,4aS)-rel-11-chloro-N-ethyl-2,4-dimethyl-2′,4′,6′-trioxo-2,2′,3′,4,4a,4′,6,6′-octahydro-1H,1′H-spiro[isoxazolo[4,5-g][1,4]oxazino[4,3-a][1,5]naphthyridine-5,5′-pyrimidine]-8-carboxamide] | 500 nM
11 | Cc1cc(C(F)(F)F)nn1-c1noc2c(F)c3c(cc12)CC1(C(=O)NC(=O)NC1=O)[C@H]1[C@H](C)O[C@H](C)CN31 (relative stereo) [Example 27, (2R,4S,4aS)-rel-11-fluoro-2,4-dimethyl-8-[5-methyl-3-(trifluoromethyl)-1H-pyrazol-1-yl]-1,2,4,4a-tetrahydro-2′H,6H-spiro[isoxazolo[4,5-g][1,4]oxazino[4,3-a]quinoline-5,5′-pyrimidine]-2′,4′,6′(1′H,3′H)-trione] | 7100 nM
12 | C[C@@H]1CN2c3c(nc4c(-c5cnc(Br)s5)noc4c3Cl)CC3(C(=O)NC(=O)NC3=O)[C@H]2[C@H](C)O1 (relative stereo) [Example 119, (2R,4S,4aS)-rel-11-chloro-2,4-dimethyl-8-(2-bromothiazol-5-yl)-2,4,4a,6-tetrahydro-1H,1′H-spiro[isoxazolo[4,5-g][1,4]oxazino[4,3-a][1,5]naphthyridine-5,5′-pyrimidine]-2′,4′,6′(3′H)-trione] | 3100 nM
13 | C[C@@H]1CN2c3c(cc4c(-c5cncs5)noc4c3F)CC3(C(=O)NC(=O)NC3=O)[C@H]2[C@H](C)O1 (relative stereo) [Example 98, (2R,4S,4aS)-rel-11-fluoro-2,4-dimethyl-8-(thiazol-5-yl)-2,4,4a,6-tetrahydro-1H,1′H-spiro[isoxazolo[4,5-g][1,4]oxazino[4,3-a]quinoline-5,5′-pyrimidine]-2′,4′,6′(3′H)-trione] | 400 nM
14 | Cc1ncn(-c2noc3c(F)c4c(cc23)CC2(C(=O)NC(=O)NC2=O)[C@H]2[C@H](C)O[C@H](C)CN42)n1 (relative stereo) [Example 54, (2R,4S,4aS)-rel-11-fluoro-2,4-dimethyl-8-(3-methyl-1H-1,2,4-triazol-1-yl)-1,2,4,4a-tetrahydro-2′H,6H-spiro[1,4-oxazino[4,3-a][1,2]oxazolo[4,5-g]quinoline-5,5′-pyrimidine]-2′,4′,6′(1′H,3′H)-trione] | 2000 nM
15 | C[C@@H]1CN2c3c(nc4c(C(=O)NCc5ccc(C#N)cc5)noc4c3Cl)CC3(C(=O)NC(=O)NC3=O)[C@H]2[C@H](C)O1 (relative stereo) [Example 132, (2R,4S,4aS)-rel-11-chloro-N-(4-cyanobenzyl)-2,4-dimethyl-2′,4′,6′-trioxo-2,2′,3′,4,4a,4′,6,6′-octahydro-1H,1′H-spiro[isoxazolo[4,5-g][1,4]oxazino[4,3-a][1,5]naphthyridine-5,5′-pyrimidine]-8-carboxamide] | 7700 nM
16 | Cc1c2c(cc3c(-c4cnccn4)noc13)CC1(C(=O)NC(=O)NC1=O)[C@H]1[C@H](C)O[C@H](C)CN21 (relative stereo) [Example 101, (2R,4S,4aS)-rel-2,4,11-trimethyl-8-(pyrazin-2-yl)-1,2,4,4a-tetrahydro-2′H,6H-spiro[1,4-oxazino[4,3-a][1,2]oxazolo[4,5-g]quinoline-5,5′-pyrimidine]-2′,4′,6′(1′H,3′H)-trione] | 1400 nM
17 | C[C@@H]1CN2c3c(cc4c(-n5cc(CO)cn5)noc4c3F)CC3(C(=O)NC(=O)NC3=O)[C@H]2[C@H](C)O1 (relative stereo) [Example 190, (2R,4S,4aS)-rel-11-fluoro-8-[4-(hydroxymethyl)-1H-pyrazol-1-yl]-2,4-dimethyl-1,2,4,4a-tetrahydro-2′H,6H-spiro[1,4-oxazino[4,3-a][1,2]oxazolo[4,5-g]quinoline-5,5′-pyrimidine]-2′,4′,6′(1′H,3′H)-trione] | 2100 nM
